From ChEMBL document CHEMBL1201862, “PubChem BioAssay data set” (2004) come the findings set out here.

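Cultured in 96-well plates, cells were exposed to test compound for 48 hours across five concentrations. At the GI50, growth is halved.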 Active and inactive are the calls of the source. No stated cut-off is given here; in the data, active = GI50 up to about 1.1 µM and inactive = higher.

Some test systems named below: OVCAR-3; SK-MEL-28; UACC-257; NCI-H226; COLO 205; SF-295; NCI-H23; MOLT-4; KM12; SNB-19; OVCAR-8; OVCAR-4; HOP-92; EKVX; Malme-3M; HCT-15; HCC 2998; HT-29; SR.
What all share (assay): inhibition of tumour cell growth, NCI panel, 48 h

As to `Cc1cc(=O)oc2c(CN(CCCl)CCCl)c(O)ccc12`, the GI50 in the assay on OVCAR-3 was 80.5 µM (inactive); in the assay on SK-MEL-28 it was 65.5 µM (inactive); in the assay on UACC-257 it was > 100 µM (inactive); in the assay on NCI-H226, 35.3 µM (inactive); in the assay on COLO 205, 18 µM (inactive); in the assay on SF-295, 11.8 µM (inactive). Besides, the GI50 is 43.3 µM (inactive) with NCI-H23; 4.99 µM (inactive) in the assay on MOLT-4; 78.7 µM (inactive) in the assay on KM12; 24.3 µM (inactive) in the assay on SNB-19; 54.6 µM (inactive) in the assay with OVCAR-8; > 100 µM (inactive) in the assay with OVCAR-4. In addition, the GI50 in the assay on HOP-92 was > 100 µM (inactive); in the assay on EKVX it was > 100 µM (inactive); with Malme-3M, 34.1 µM (inactive); with HCT-15, 56.9 µM; in the assay with HCC 2998, 28.4 µM (inactive); with HT-29, 22.7 µM (inactive). The GI50 in the assay on SR is 43.6 µM (inactive).

For `Cc1ccc(-c2ccc3c(c2)Sc2ccccc2O3)n1C`, the GI50 was 0.373 µM (active) with OVCAR-3; 19.5 µM (inactive) in the assay with UACC-257; 19.9 µM (inactive) in the assay on NCI-H226; 0.232 µM (active) in the assay on COLO 205; 0.165 µM (active) with SF-295; 0.908 µM (active) in the assay on NCI-H23. Also, the GI50 is 0.822 µM (active) with MOLT-4; 0.257 µM (active) in the assay with KM12; 0.607 µM (active) with SNB-19; 0.693 µM (active) in the assay with OVCAR-8; 1.32 µM (inactive) with OVCAR-4; 19.8 µM (inactive) in the assay on HOP-92. For the same compound, the GI50 with EKVX was 0.618 µM (active); in the assay with Malme-3M, 0.0984 µM (active); with HCT-15, 0.143 µM; with HCC 2998, 0.171 µM (active); in the assay on HT-29 it was 0.213 µM (active); in the assay with SR, 0.0675 µM (active).

In the case of `N#Cc1c(N)c2c(c(-c3ccccc3)c1-c1ccccc1)C(=O)N(NC(=S)Nc1ccccc1)C2=O`, the GI50 in the assay with OVCAR-3 was 64.4 µM (inactive); with SK-MEL-28 it was 47.2 µM (inactive); in the assay with UACC-257, > 100 µM (inactive); in the assay on NCI-H226, > 100 µM (inactive); with COLO 205 it was 75.2 µM (inactive); in the assay on SF-295, 68.5 µM (inactive). Further, the GI50 in the assay on MOLT-4 was 46.8 µM (inactive); in the assay on KM12, 75.7 µM (inactive); in the assay with SNB-19, > 100 µM (inactive); with OVCAR-8 it was 88.7 µM (inactive); with OVCAR-4 it was 51.1 µM (inactive); in the assay on HOP-92 it was 34.2 µM (inactive). Moreover, the GI50 in the assay with EKVX is > 100 µM (inactive); in the assay with Malme-3M it was > 100 µM (inactive); in the assay with HCT-15, 71.8 µM; in the assay with HCC 2998 it was > 100 µM (inactive); with SR, 68.7 µM (inactive).

Turning to `CC(=O)OCC1OC(SC2=NC(=O)/C(=C/c3ccccc3)S2)C(OC(C)=O)C(OC(C)=O)C1OC(C)=O` (centres undefined), the GI50 in the assay on OVCAR-3 is 19.7 µM (inactive); in the assay on SK-MEL-28, 30.8 µM (inactive); in the assay on UACC-257, 34.2 µM (inactive); in the assay on NCI-H226, 33.8 µM (inactive); in the assay with COLO 205, 45.6 µM (inactive); with SF-295, 62.8 µM (inactive). Also, the GI50 was 52.5 µM (inactive) in the assay on NCI-H23; 21.8 µM (inactive) with MOLT-4; 36.9 µM (inactive) in the assay on KM12; 35.1 µM (inactive) in the assay with SNB-19; 14.6 µM (inactive) in the assay with OVCAR-8; 32 µM (inactive) in the assay with OVCAR-4. In addition, the GI50 in the assay on HOP-92 was 15.7 µM (inactive); in the assay with EKVX it was 21.2 µM (inactive); in the assay on Malme-3M it was 23.7 µM (inactive); in the assay with HCT-15, 59 µM; with HCC 2998, 28.8 µM (inactive); in the assay on HT-29, 37.8 µM (inactive). Further, the GI50 with SR is 10.9 µM (inactive).

With `O=C(O)C#Cc1ccc([N+](=O)[O-])cc1`, the GI50 with OVCAR-3, in the assay with SK-MEL-28, with UACC-257, with NCI-H226, with COLO 205 and in the assay on SF-295 was > 100 µM (inactive) each time. Further, the GI50 in the assay on NCI-H23, in the assay with MOLT-4, in the assay on KM12, in the assay on SNB-19, in the assay with OVCAR-8 and in the assay on OVCAR-4 was > 100 µM (inactive) each time. Also, the GI50 in the assay on HOP-92 is > 100 µM (inactive); in the assay on EKVX it was > 100 µM (inactive); with Malme-3M, > 100 µM (inactive); with HCT-15, over 100 µM; in the assay with HCC 2998 it was > 100 µM (inactive); in the assay on HT-29, > 100 µM (inactive). The GI50 in the assay with SR was > 100 µM (inactive).

For the compound `CCOC1(OCC)N=C(N)C2(C#N)C3(C(=O)N(C(C)C)N=C3C)C12C#N` (centres undefined), the GI50 in the assay on OVCAR-3 was 44.3 µM (inactive); in the assay with SK-MEL-28 it was > 100 µM (inactive); with UACC-257, > 100 µM (inactive); in the assay on NCI-H226, > 100 µM (inactive); in the assay on COLO 205 it was > 100 µM (inactive); in the assay with SF-295 it was > 100 µM (inactive). Moreover, the GI50 in the assay on NCI-H23, in the assay with MOLT-4, in the assay with KM12, in the assay with SNB-19, with OVCAR-8 and in the assay on OVCAR-4 was > 100 µM (inactive) throughout. In addition, the GI50 with HOP-92 was > 100 µM (inactive); in the assay on EKVX it was > 100 µM (inactive); with Malme-3M, > 100 µM (inactive); in the assay with HCT-15, over 100 µM; with HCC 2998, > 100 µM (inactive); in the assay with HT-29, > 100 µM (inactive). In addition, the GI50 in the assay on SR is 45.4 µM (inactive).

For `Clc1cccc(/C=N/C23CC4CC(CC(C4)C2)C3)c1Cl`, the GI50 in the assay on OVCAR-3, with SK-MEL-28, in the assay on UACC-257, in the assay with NCI-H226, in the assay on COLO 205 and with SF-295 was > 10 µM (inactive) each time. In addition, the GI50 in the assay with NCI-H23, with KM12, with SNB-19, with OVCAR-8, in the assay on OVCAR-4 and in the assay on HOP-92 was > 10 µM (inactive) throughout. Moreover, the GI50 in the assay on EKVX was > 10 µM (inactive); with Malme-3M, > 10 µM (inactive); in the assay on HCT-15, over 10 µM; in the assay on HCC 2998, > 10 µM (inactive); with HT-29 it was > 10 µM (inactive); with SR, 0.637 µM (active).

In the case of `CCOC(=O)CCC(NC(=O)c1ccc(Oc2nc3c(N)cc(C(F)(F)F)cc3nc2-c2ccccc2)cc1)C(=O)OCC` (centres undefined), the GI50 in the assay on OVCAR-3 is 3.53 µM (inactive); with SK-MEL-28, > 100 µM (inactive); in the assay on UACC-257 it was > 27.9 µM (inactive); in the assay with NCI-H226 it was 2.76 µM (inactive); in the assay on COLO 205, > 100 µM (inactive); in the assay on SF-295, 11 µM (inactive). Further, the GI50 is 21.3 µM (inactive) in the assay with NCI-H23; > 100 µM (inactive) with MOLT-4; 19.5 µM (inactive) with KM12; 30.5 µM (inactive) with SNB-19; 1.09 µM (active) in the assay with OVCAR-8; 19.2 µM (inactive) in the assay on OVCAR-4. The GI50 was 56.8 µM (inactive) in the assay on HOP-92; 47.1 µM (inactive) in the assay on EKVX; 12.4 µM (inactive) in the assay with Malme-3M; over 100 µM in the assay on HCT-15; 67.8 µM (inactive) in the assay with HCC 2998; 2.43 µM (inactive) with HT-29. Also, in the assay with SR, the GI50 is 9.95 µM (inactive).

`NNC(=O)CCCCCCCC(=O)O`: the GI50 with OVCAR-3, with SK-MEL-28, in the assay on UACC-257, with NCI-H226, in the assay with COLO 205 and with SF-295 was > 100 µM (inactive) each time. Moreover, the GI50 with NCI-H23 is > 100 µM (inactive); in the assay with MOLT-4, > 100 µM (inactive); in the assay on KM12 it was > 100 µM (inactive); in the assay on SNB-19 it was > 100 µM (inactive); in the assay with OVCAR-8, 10.4 µM (inactive); in the assay with OVCAR-4, > 100 µM (inactive). Further, the GI50 with HOP-92 is > 100 µM (inactive); in the assay with EKVX, > 100 µM (inactive); in the assay on Malme-3M, > 100 µM (inactive); with HCT-15, over 100 µM; with HCC 2998, > 100 µM (inactive); in the assay with HT-29 it was > 100 µM (inactive). The GI50 with SR was > 100 µM (inactive).

In the case of `Cn1c(=O)c2c(ncn2CCCCOc2ccc3c(c2)[n+]([O-])nc(N)[n+]3[O-])n(C)c1=O`, the GI50 was 20.4 µM (inactive) in the assay with OVCAR-3; 34.7 µM (inactive) with SK-MEL-28; 23.9 µM (inactive) with UACC-257; 19.4 µM (inactive) with NCI-H226; 17 µM (inactive) in the assay on COLO 205; 32.6 µM (inactive) with SF-295. Moreover, the GI50 is 12.4 µM (inactive) in the assay on NCI-H23; 25.4 µM (inactive) in the assay with MOLT-4; 32.6 µM (inactive) with KM12; 31.1 µM (inactive) in the assay with SNB-19; 20 µM (inactive) in the assay with OVCAR-8; 41.8 µM (inactive) in the assay with OVCAR-4. For the same compound, the GI50 was 4.76 µM (inactive) in the assay on HOP-92; 28.7 µM (inactive) in the assay with EKVX; 21.1 µM (inactive) in the assay on Malme-3M; 65.2 µM with HCT-15; 19.2 µM (inactive) in the assay on HCC 2998; 43.2 µM (inactive) in the assay on HT-29. The GI50 in the assay with SR was 49.2 µM (inactive).

In the case of `COC(=O)CC(=O)OC1C[C@@H]2CCC3C(C)(C)CCC[C@]3(C)C23CC[C@@]1(C)C3` (some centres undefined), the GI50 in the assay on OVCAR-3 is 16.9 µM (inactive); in the assay on SK-MEL-28 it was 19.8 µM (inactive); in the assay on UACC-257 it was 19.1 µM (inactive); in the assay on NCI-H226, 28.6 µM (inactive); in the assay on COLO 205, 18.6 µM (inactive); with SF-295, 19.2 µM (inactive). Further, the GI50 is 18.4 µM (inactive) with NCI-H23; 53.8 µM (inactive) in the assay on MOLT-4; 18.5 µM (inactive) with KM12; 17.4 µM (inactive) in the assay with SNB-19; 19.5 µM (inactive) with OVCAR-8; 16.9 µM (inactive) with OVCAR-4. The GI50 in the assay with HOP-92 is 18 µM (inactive); with Malme-3M, 17.9 µM (inactive); with HCT-15, 19.9 µM; in the assay with HCC 2998 it was 19.8 µM (inactive); in the assay with HT-29, 19.2 µM (inactive); in the assay with SR, > 100 µM (inactive).
